Test results as given in PMC12171880, “Selectivity and Safety Characterization of a Xanthine–Imidazothiazole Lead Structure: a Novel Tryptophan Hydroxylase Inhibitor of Peripheral Serotonin Synthesis” (ACS Pharmacology & Translational Science, 2025).

Experiments:
[1] = target: T1, rat homolog of TH (Rattus norvegicus, UniProt P04177); assay: Eurofins Diversity Panel enzyme assay, rat TH; assay type: biochemical
T1 construct: Eurofins Cerep (contract screening)
Experimental: TPT-004 was evaluated at a concentration of 10 μM in a total of 97 binding, enzyme, and uptake assays (Diversity Panel) by Eurofins Cerep (Celle l’Evescault, France). Compound binding was calculated as % inhibition of the binding of a ligand specific to each target. The compound enzyme inhibition effect was calculated as percentage inhibition of the control enzyme activity. Results showing an inhibition (or stimulation for assays run under basal conditions) of >50% are considered to represent significant effects of the test compounds. Results showing an inhibition (or stimulation) between 25% and 50% are indicative of weak to moderate effects. Results showing an inhibition (or stimulation) lower than 25% are not considered significant and are mostly attributable to variability in the signal around the control level. […] In each experiment, and if applicable, the respective reference compound was tested concurrently with TPT-004, and the data were compared with historical values determined at Eurofins. […]
The results are expressed as a percent of control-specific binding: measured specific binding/control specific binding×100 and as a percent inhibition of control-specific binding: 100−(measured specific binding/control specific binding×100) obtained in the presence of TPT-004. […]

[2] = target: T2, recombinant human TH (Homo sapiens, UniProt P07101); assay: TH enzymatic activity assay (fluorescence, 96-well); assay type: biochemical
T2 construct: For purification of MBP-tagged full-length PAH and TH; made in house; host or cells: E. coli T7 Express (NEB) with pRARE2
T2 sequence (P07101 whole entry): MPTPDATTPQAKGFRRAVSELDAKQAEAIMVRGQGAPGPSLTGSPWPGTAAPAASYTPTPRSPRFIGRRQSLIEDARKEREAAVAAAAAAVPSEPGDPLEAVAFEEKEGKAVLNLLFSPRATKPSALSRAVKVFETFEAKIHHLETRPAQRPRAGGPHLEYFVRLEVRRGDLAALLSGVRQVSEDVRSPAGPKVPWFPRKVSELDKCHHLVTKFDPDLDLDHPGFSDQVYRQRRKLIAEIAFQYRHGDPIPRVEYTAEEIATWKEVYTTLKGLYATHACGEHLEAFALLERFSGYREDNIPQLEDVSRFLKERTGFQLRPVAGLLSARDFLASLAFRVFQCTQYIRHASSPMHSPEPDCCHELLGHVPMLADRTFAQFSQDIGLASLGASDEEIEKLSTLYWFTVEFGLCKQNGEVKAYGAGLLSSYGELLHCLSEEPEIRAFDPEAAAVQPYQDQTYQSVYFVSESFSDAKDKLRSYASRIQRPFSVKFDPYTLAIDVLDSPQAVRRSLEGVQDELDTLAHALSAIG
Experimental: The TH enzymatic activity assay was performed using a 96-well plate format (Greiner). […] To initiate the reaction, L-Tyr (Fluka) was added (final concentration, 30 μM). The assay contained positive control samples (complete reaction mix, no inhibitor test compound), negative control samples (reaction mix without BH4), and an additional L-Tyr control (reaction mix without BH4, spiked with 25.5 μM or 27 μM L-Tyr) to measure the progression of the enzymatic reaction. All samples were measured in technical triplicates. The TH assay was performed at RT for 30 min. Depletion of the reaction substrate (L-Tyr) was continuously monitored at 240 s intervals by fluorescence measurements (ex.280 nm/em.306 nm) for 12 min using a Tecan Infinite 200 plate reader.
Negative control values (no enzyme or no substrate) were deducted from the positive control (full enzyme activity) and test compound values. Subsequently, the data were normalized (Pos. Ctr. = 100% of the enzyme activity). The results were further analyzed with GraphPad Prism 9 using the nonlinear regression model: log(inhibitor) vs. response−variableslope(fourparameters) which fits the following equation to the data: Y=Bottom+(Top−Bottom)/(1+10^((logIC50−X)×HillSlope))
The IC50 values were calculated from three independent experiments and are given as the mean ± SD.

T1 sequence (P04177 whole entry): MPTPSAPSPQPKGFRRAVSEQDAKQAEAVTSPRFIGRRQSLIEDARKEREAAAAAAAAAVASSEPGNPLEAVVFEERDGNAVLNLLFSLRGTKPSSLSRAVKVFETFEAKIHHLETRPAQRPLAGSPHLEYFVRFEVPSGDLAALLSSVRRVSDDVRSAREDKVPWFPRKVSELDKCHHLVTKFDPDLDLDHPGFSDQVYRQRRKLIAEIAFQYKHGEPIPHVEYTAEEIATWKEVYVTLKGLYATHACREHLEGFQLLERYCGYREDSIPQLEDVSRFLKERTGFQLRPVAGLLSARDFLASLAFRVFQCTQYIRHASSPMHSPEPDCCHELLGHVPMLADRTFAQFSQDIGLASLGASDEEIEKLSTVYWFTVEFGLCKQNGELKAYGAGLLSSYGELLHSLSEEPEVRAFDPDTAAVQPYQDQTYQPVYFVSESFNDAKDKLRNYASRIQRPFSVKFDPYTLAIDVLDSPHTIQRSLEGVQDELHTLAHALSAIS

CCn1c(=O)[nH]c(=O)c2c1nc(Cc1cn3cc(C)sc3n1)n2CC1COC1 [TPT-004]
inhibition at 10 µM [1]: 87.8% | Mean TH activity [%] ([2]; 10 nM): 92.60% | IC50 ([2]; 10 nM to 30 μM, 30 μM L-Tyr, 5 μM BH4): 1.36 µM | Mean TH activity [%] ([2]; 30 nM): 90.14% | Mean TH activity [%] ([2]; 100 nM): 95.57% | Mean TH activity [%] ([2]; 300 nM): 86.81% | Mean TH activity [%] ([2]; 1 μM): 58.14% | Mean TH activity [%] ([2]; 3 μM): 28.97% | Mean TH activity [%] ([2]; 10 μM): 6.59% | Mean TH activity [%] ([2]; 30 μM): -6.30% | Selectivity ratio TH IC50 : TPH1 IC50 ([2]; calculated from determined IC50 values): 40.71 | IC50 ([2]; supplementary CSV): 1.36 µM
